Patent publication US11554171B2, “Compounds and methods for the targeted degradation of bromodomain-containing proteins” (Arvinas Operations, Inc., priority 2015, dated 2023)

System: c-myc in 22RV-1 cells
Experiment: Human c-myc ELISA assay
Format: cell-based
Details: Homo sapiens; for Emax: 22Rv1, 18 h, read-out: Degradation of BRD4: Maximum inhibition (%) c-Myc ELISA in 22RV1 cells; for DC50: 22Rv1, read-out: Degradation of BRD4: DC50 (uM) c-Myc ELISA in 22RV1 cells
Summary of the method: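 22RV-1 cells treated 18 h with 8-point 1:3 compound dilutions (final top 300 nM or 1 μM, 0.1% DMSO). Cells lysed in RIPA buffer with protease/phosphatase inhibitors, and c-myc protein in cleared lysate quantified by ELISA against a standard curve. DC50 reported for c-myc suppression.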

Compound	Emax [%]	DC50 [µM]
Cc1ncsc1-c1ccc([C@H](C)NC(=O)[C@@H]2C[C@@H](O)CN2C(=O)[C@@H](NC(=O)CN2CCC(O[C@H]3C[C@H](NC(=O)c4ccc5c6ncc(-c7c(C)noc7C)cc6n([C@@H](c6ccccc6)C6CCOCC6)c5c4)C3)CC2)C(C)(C)C)cc1 [Example 366, (2S,4R)-1-[(2S)-3,3-dimethyl-2-(2-{4-[(1,3-trans)-3-[3-(dimethyl-1,2-oxazol-4-yl)-5-[(R)-oxan-4-yl(phenyl)methyl]-5H-pyrido[3,2-b]indole-7-amido]cyclobutoxy]piperidin-1-yl}acetamido)butanoyl]-4-hydroxy-N-[(1S)-1-[4-(4-methyl-1,3-thiazol-5-yl)phenyl]ethyl]pyrrolidine-2-carboxamide]	100	< 0.01
Cc1ncsc1-c1ccc(CNC(=O)[C@@H]2C[C@@H](O)CN2C(=O)[C@@H](NC(=O)COCCCOc2ccc3c(c2)c2c(C(N)=O)cc(-c4c(C)noc4C)cc2n3Cc2ccccc2)C(C)(C)C)cc1 [Example 184]	91.5	0.01 to 0.1
Cc1ncsc1-c1ccc([C@H](C)NC(=O)[C@@H]2C[C@@H](O)CN2C(=O)[C@@H](NC(=O)[C@@H]2CC[C@H](COCCCNC(=O)C[C@@H]3N=C(c4ccc(Cl)cc4)c4c(sc(C)c4C)-n4c(C)nnc43)O2)C(C)(C)C)cc1 [Example 186]	94.5	0.01 to 0.1
Cc1ncsc1-c1ccc(CNC(=O)[C@@H]2C[C@@H](O)CN2C(=O)[C@@H](NC(=O)COCCOc2cccc(NC(=O)C[C@@H]3N=C(c4ccc(Cl)cc4)c4c(sc(C)c4C)-n4c(C)nnc43)c2)C(C)(C)C)cc1 [Example 81]	99	0.01 to 0.1
Cc1ncsc1-c1ccc([C@H](C)NC(=O)[C@@H]2C[C@@H](O)CN2C(=O)[C@@H](NC(=O)COCCOc2cccc(NC(=O)C[C@@H]3N=C(c4ccc(Cl)cc4)c4c(sc(C)c4C)-n4c(C)nnc43)c2)C(C)(C)C)cc1 [Example 124]	98	< 0.01
Cc1ncsc1-c1ccc([C@H](C)NC(=O)[C@@H]2C[C@@H](O)CN2C(=O)[C@H](C(C)C)n2cc(-c3ccnc(N4CC[C@H](NC(=O)C[C@@H]5N=C(c6ccc(Cl)cc6)c6c(sc(C)c6C)-n6c(C)nnc65)C4)c3)cn2)cc1 [Example 264]	97	< 0.01
Cc1ncsc1-c1ccc([C@H](C)NC(=O)[C@@H]2C[C@@H](O)CN2C(=O)[C@@H](NC(=O)COC[C@@H](O)CN2CCN(C(=O)C[C@@H]3N=C(c4ccc(Cl)cc4)c4c(sc(C)c4C)-n4c(C)nnc43)CC2)C(C)(C)C)cc1 [Example 329]	< 5	> 1
Cc1ncsc1-c1ccc([C@H](C)NC(=O)[C@@H]2C[C@@H](O)CN2C(=O)[C@@H](n2cc(-c3ccnc(O[C@H]4C[C@H](NC(=O)C[C@@H]5N=C(c6ccc(Cl)cc6)c6c(sc(C)c6C)-n6c(C)nnc65)C4)c3)cn2)C(C)(C)C)cc1 [Example 234]	80.6	0.01 to 0.1
Cc1ncsc1-c1ccc([C@H](C)NC(=O)[C@@H]2C[C@@H](O)CN2C(=O)[C@@H](NC(=O)Cc2cccc(O[C@H]3C[C@H](NC(=O)C[C@@H]4N=C(c5ccc(Cl)cc5)c5c(sc(C)c5C)-n5c(C)nnc54)C3)c2)C(C)(C)C)cc1 [Example 194]	92.4	< 0.01
Cc1ncsc1-c1ccc(CNC(=O)[C@@H]2C[C@@H](O)CN2C(=O)[C@@H](NC(=O)COCC#CC#CCOc2ccc([C@@H](C)NC(=O)C[C@@H]3N=C(c4ccc(Cl)cc4)c4c(sc(C)c4C)-n4c(C)nnc43)cc2)C(C)(C)C)cc1 [Example 43, (2S,4R)-1-[(2S)-2-{2-[(6-{4-[(1R)-1-{2-[(9S)-7-(4-chlorophenyl)-4,5,13-trimethyl-3-thia-1,8,11,12-tetraazatricyclo[8.3.0.0^2,^6]trideca-2(6),4,7,10,12-pentaen-9-yl]acetamido}ethyl]phenoxy}hexa-2,4-diyn-1-yl)oxy]acetamido}-3,3-dimethylbutanoyl]-4-hydroxy-N-{[4-(4-methyl-1,3-thiazol-5-yl)phenyl]methyl}pyrrolidine-2-carboxamide]	100	0.01 to 0.1
Cc1ncsc1-c1ccc([C@H](C)NC(=O)[C@@H]2C[C@@H](O)CN2C(=O)[C@H](C(C)C)n2cc(-c3ccnc(O[C@H]4C[C@@H](NC(=O)C[C@@H]5N=C(c6ccc(Cl)cc6)c6c(sc(C)c6C)-n6c(C)nnc65)C4)n3)cn2)cc1 [Example 301]	95	0.01 to 0.1
Cc1ncsc1-c1ccc(CNC(=O)[C@@H]2C[C@@H](O)CN2C(=O)[C@@H](NC(=O)Cc2ccc(OCCNC(=O)C[C@@H]3N=C(c4ccc(Cl)cc4)c4c(sc(C)c4C)-n4c(C)nnc43)cn2)C(C)(C)C)cc1 [Example 92]	91.1	0.1 to 1
Cc1ncsc1-c1ccc(CNC(=O)[C@@H]2C[C@@H](O)CN2C(=O)[C@@H](NC(=O)COCCCOCCCOc2ccc(NC(=O)C[C@@H]3N=C(c4ccc(Cl)cc4)c4c(sc(C)c4C)-n4c(C)nnc43)c(F)c2)C(C)(C)C)cc1 [Example 20]	94	0.01 to 0.1
Cc1ncsc1-c1ccc(CNC(=O)[C@@H]2C[C@@H](O)CN2C(=O)[C@@H](NC(=O)COCCCOCCCOc2ccc3c(c2)c2c(C(N)=O)cc(-c4c(C)noc4C)cc2n3Cc2ccccc2)C(C)(C)C)cc1 [Example 133, 9-benzyl-2-(dimethyl-1,2-oxazol-4-yl)-6-{3-[3-({[(2S)-1-[(2S,4R)-4-hydroxy-2-({[4-(4-methyl-1,3-thiazol-5-yl)phenyl]methyl}carbamoyl)pyrrolidin-1-yl]-3,3-dimethyl-1-oxobutan-2-yl]carbamoyl}methoxy)propoxy]propoxy}-9H-carbazole-4-carboxamide]	98	0.01 to 0.1
Cc1ncsc1-c1ccc([C@H](C)NC(=O)[C@@H]2C[C@@H](O)CN2C(=O)[C@@H](NC(=O)CN2CCC(N3CCC(NC(=O)C[C@@H]4N=C(c5ccc(Cl)cc5)c5c(sc(C)c5C)-n5c(C)nnc54)CC3)CC2)C(C)(C)C)cc1 [Example 353, (2S,4R)-1-[(2S)-2-{2-[4-(4-{2-[(9S)-7-(4-chlorophenyl)-4,5,13-trimethyl-3-thia-1,8,11,12-tetraazatricyclo[8.3.0.0^2,6]trideca-2(6),4,7,10,12-[0261]pentaen-9-yl]acetamido}piperidin-1-yl)piperidin-1-yl]acetamido}-3,3-dimethylbutanoyl]-4-hydroxy-N-[(1S)-1-[4-(4-methyl-1,3-thiazol-5-yl)phenyl]ethyl]pyrrolidine-2-carboxamide]	> 90	0.1 to 1
Cc1ncsc1-c1ccc([C@H](C)NC(=O)[C@@H]2C[C@@H](O)CN2C(=O)C(C(C)C)n2cc(-c3cc(F)cc(O[C@H]4C[C@@H](NC(=O)C[C@@H]5N=C(c6ccc(Cl)cc6)c6c(sc(C)c6C)-n6c(C)nnc65)C4)c3)cn2)cc1 (some centres unmarked) [Example 214]	97	0.01 to 0.1
Cc1ncsc1-c1ccc([C@H](C)NC(=O)[C@@H]2C[C@@H](O)CN2C(=O)[C@@H](NC(=O)CN2C[C@H](C)N(C3CC4(C3)CN(C(=O)C[C@@H]3N=C(c5ccc(Cl)cc5)c5c(sc(C)c5C)-n5c(C)nnc53)C4)C[C@H]2C)C(C)(C)C)cc1 [Example 359]	> 90	0.01 to 0.1
Cc1ncsc1-c1ccc([C@H](C)NC(=O)[C@@H]2C[C@@H](O)CN2C(=O)[C@@H](NC(=O)/C=C/c2cc(F)cc(OC(C)CNC(=O)C[C@@H]3N=C(c4ccc(Cl)cc4)c4c(sc(C)c4C)-n4c(C)nnc43)c2)C(C)(C)C)cc1 (some centres unmarked) [Example 188]	95.4	< 0.01
Cc1cc(C(C(=O)N2C[C@H](O)C[C@H]2C(=O)NCc2ccc(Cl)cc2OCCOCCOCCOCCNC(=O)C[C@@H]2N=C(c3ccc(Cl)cc3)c3c(sc(C)c3C)-n3c(C)nnc32)C(C)C)on1 (some centres unmarked) [Example 361]	100	0.01 to 0.1
Cc1ncsc1-c1ccc([C@H](C)NC(=O)[C@@H]2C[C@@H](O)CN2C(=O)[C@@H](NC(=O)COc2ccc(N3CC[C@H](NC(=O)C[C@@H]4N=C(c5ccc(Cl)cc5)c5c(sc(C)c5C)-n5c(C)nnc54)C3)nc2)C(C)(C)C)cc1 [Example 236]	88.9	0.01 to 0.1
Cc1ncsc1-c1ccc(CNC(=O)[C@@H]2C[C@@H](O)CN2C(=O)[C@@H](NC(=O)COCCOCCOc2ccc(NC(=O)C[C@@H]3N=C(c4ccc(Cl)cc4)c4c(sc(C)c4C)-n4c(C)nnc43)cc2)C(C)(C)C)cc1 [Example 10, (2S,4R)-1-[(2S)-2-(2-{2-[2-(4-{2-[(9S)-7-(4-chlorophenyl)-4,5,13-trimethyl-3-thia-1,8,11,12-tetraazatricyclo[8.3.0.0^2,^6]trideca-2(6),4,7,10,12-pentaen-9-yl]acetamido}phenoxy)ethoxy]ethoxy}acetamido)-3,3-dimethylbutanoyl]-4-hydroxy-N-{[4-(4-methyl-1,3-thiazol-5-yl)phenyl]methyl}pyrrolidine-2-carboxamide]	100	0.01 to 0.1
Cc1ncsc1-c1ccc([C@H](C)NC(=O)[C@@H]2C[C@@H](OC(=O)CC(C)(C)N)CN2C(=O)[C@@H](NC(=O)c2cc3cc(O[C@H]4C[C@@H](NC(=O)C[C@@H]5N=C(c6ccc(Cl)cc6)c6c(sc(C)c6C)-n6c(C)nnc65)C4)ccc3o2)C(C)(C)C)cc1 [Example 343]	87	0.01 to 0.1
Cc1ncsc1-c1ccc(CNC(=O)[C@@H]2C[C@@H](O)CN2C(=O)[C@@H](NC(=O)COCCn2cc(-c3ccc([C@H](C)NC(=O)C[C@@H]4N=C(c5ccc(Cl)cc5)c5c(sc(C)c5C)-n5c(C)nnc54)cc3)cn2)C(C)(C)C)cc1 [Example 86]	80	0.1 to 1
Cc1ncsc1-c1ccc(CNC(=O)[C@@H]2C[C@@H](O)CN2C(=O)[C@@H](NC(=O)COCCOCCOCCOc2ccc(NC(=O)C[C@@H]3N=C(c4ccc(Cl)cc4)c4c(sc(C)c4C)-n4c(C)nnc43)cc2)C(C)(C)C)cc1 [Example 11]	99.5	0.01 to 0.1
Cc1sc2c(c1C)C(c1ccc(Cl)cc1)=N[C@@H](CC(=O)N[C@H]1C[C@H](Oc3ccc(CC(=O)N[C@H](C(=O)N4C[C@H](O)C[C@H]4C(=O)N[C@@H](C)c4ccc(-c5nccn5C)cc4)C(C)(C)C)cc3)C1)c1nnc(C)n1-2 [Example 273]	< 5	> 1
